Drawing on ChEMBL document CHEMBL5291721, “A preclinical secondary pharmacology resource illuminates target-adverse drug reaction associations of marketed drugs” (Nat Commun, 2023), this text covers AC50 for ten compounds.

The structures appear in SMILES notation. A value given as a limit tells only on which side of the number the result lay.

Assay [1] concerns the target Bile salt export pump (Homo sapiens, UniProt O95342). Format: functional.
Assay [2] concerns the target T1, Adenosine receptor A1 (Homo sapiens, UniProt P30542).
T1 sequence (P30542 whole entry): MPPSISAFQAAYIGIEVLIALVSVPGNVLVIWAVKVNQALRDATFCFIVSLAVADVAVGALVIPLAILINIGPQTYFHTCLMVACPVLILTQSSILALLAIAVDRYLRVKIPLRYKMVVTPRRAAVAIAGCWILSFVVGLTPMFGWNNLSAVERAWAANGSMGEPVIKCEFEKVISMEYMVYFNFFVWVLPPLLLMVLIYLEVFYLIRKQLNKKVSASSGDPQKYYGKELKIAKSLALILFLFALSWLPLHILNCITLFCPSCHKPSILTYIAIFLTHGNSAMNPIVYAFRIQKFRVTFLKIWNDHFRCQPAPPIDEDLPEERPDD

In assay [3] the target is Adenosine receptor A2a (Homo sapiens, UniProt P29274).
Adenosine receptor A2a, sequence (P29274 whole entry): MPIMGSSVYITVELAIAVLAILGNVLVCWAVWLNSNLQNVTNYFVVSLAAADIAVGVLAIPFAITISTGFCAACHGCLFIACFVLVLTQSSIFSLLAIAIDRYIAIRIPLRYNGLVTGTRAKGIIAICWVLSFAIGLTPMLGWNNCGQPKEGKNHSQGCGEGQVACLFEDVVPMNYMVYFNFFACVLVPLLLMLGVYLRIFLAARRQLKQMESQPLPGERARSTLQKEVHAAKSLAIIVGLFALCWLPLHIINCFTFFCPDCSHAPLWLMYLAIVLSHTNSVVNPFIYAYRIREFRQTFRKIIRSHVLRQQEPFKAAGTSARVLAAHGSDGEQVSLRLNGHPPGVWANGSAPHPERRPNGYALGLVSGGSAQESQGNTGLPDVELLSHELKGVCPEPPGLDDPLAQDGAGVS
Assay [4] has as its target T2, Alpha-2A adrenergic receptor (Homo sapiens, UniProt P08913).
T2 sequence (P08913 whole entry): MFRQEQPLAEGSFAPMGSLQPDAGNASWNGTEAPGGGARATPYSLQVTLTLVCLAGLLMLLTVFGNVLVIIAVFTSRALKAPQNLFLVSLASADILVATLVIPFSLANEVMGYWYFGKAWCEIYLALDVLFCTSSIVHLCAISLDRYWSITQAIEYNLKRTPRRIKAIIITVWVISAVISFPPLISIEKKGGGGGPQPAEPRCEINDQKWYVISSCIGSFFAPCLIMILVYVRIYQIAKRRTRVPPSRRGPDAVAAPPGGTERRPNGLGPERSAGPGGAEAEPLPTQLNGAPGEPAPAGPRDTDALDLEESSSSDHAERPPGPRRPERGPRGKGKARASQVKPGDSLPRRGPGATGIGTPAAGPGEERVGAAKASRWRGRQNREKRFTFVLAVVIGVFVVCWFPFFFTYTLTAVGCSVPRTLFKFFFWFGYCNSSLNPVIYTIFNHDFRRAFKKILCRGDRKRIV
It counts as functional, cell-based.

The target in assay [5] is T3, Alpha-2C adrenergic receptor (Homo sapiens, UniProt P18825).
T3 sequence (P18825 whole entry): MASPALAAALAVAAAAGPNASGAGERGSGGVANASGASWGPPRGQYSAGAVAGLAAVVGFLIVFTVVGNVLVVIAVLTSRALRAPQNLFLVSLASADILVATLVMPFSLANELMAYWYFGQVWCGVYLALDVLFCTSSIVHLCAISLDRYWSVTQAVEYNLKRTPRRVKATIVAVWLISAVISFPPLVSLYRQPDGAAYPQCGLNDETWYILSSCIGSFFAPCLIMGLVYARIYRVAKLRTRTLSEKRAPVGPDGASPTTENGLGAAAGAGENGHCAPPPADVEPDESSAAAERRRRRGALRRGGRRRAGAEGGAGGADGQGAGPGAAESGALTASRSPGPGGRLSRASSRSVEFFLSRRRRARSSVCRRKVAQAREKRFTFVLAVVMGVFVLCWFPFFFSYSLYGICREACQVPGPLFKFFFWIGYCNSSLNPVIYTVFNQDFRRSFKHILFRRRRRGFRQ
It counts as functional.

Assay [6] deals with D(1A) dopamine receptor (Homo sapiens, UniProt P21728). It counts as functional, cell-based.
D(1A) dopamine receptor, sequence (P21728 whole entry): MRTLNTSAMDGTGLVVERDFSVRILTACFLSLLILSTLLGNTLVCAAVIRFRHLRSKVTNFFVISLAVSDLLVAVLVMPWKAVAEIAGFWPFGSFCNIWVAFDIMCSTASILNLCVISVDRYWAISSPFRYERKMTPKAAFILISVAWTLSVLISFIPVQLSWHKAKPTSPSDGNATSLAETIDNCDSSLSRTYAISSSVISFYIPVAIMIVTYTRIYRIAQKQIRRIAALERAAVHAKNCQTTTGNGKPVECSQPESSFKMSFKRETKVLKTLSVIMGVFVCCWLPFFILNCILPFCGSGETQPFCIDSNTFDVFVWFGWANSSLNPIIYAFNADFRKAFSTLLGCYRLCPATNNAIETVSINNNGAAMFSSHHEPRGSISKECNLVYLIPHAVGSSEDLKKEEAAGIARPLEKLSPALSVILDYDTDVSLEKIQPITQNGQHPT
Assay [7] has as its target T4, 5-hydroxytryptamine receptor 1A (Homo sapiens, UniProt P08908).
T4 sequence (P08908 whole entry): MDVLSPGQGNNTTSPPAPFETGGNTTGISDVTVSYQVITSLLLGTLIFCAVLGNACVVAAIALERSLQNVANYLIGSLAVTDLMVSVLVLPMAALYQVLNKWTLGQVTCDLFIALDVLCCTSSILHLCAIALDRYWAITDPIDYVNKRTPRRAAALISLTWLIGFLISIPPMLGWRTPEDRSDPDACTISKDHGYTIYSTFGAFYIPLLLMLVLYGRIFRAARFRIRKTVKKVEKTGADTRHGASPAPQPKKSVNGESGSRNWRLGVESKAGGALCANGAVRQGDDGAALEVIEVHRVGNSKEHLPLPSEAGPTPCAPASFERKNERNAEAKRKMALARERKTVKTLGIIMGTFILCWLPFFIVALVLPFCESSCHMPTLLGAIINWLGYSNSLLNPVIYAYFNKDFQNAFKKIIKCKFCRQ
It counts as functional, cell-based.

Assay [8] addresses 5-hydroxytryptamine receptor 2B (Homo sapiens, UniProt P41595). It counts as functional, cell-based.
Assay [9] has as its target T5, 5-hydroxytryptamine receptor 3A (Homo sapiens, UniProt P46098).
T5 sequence (P46098 whole entry): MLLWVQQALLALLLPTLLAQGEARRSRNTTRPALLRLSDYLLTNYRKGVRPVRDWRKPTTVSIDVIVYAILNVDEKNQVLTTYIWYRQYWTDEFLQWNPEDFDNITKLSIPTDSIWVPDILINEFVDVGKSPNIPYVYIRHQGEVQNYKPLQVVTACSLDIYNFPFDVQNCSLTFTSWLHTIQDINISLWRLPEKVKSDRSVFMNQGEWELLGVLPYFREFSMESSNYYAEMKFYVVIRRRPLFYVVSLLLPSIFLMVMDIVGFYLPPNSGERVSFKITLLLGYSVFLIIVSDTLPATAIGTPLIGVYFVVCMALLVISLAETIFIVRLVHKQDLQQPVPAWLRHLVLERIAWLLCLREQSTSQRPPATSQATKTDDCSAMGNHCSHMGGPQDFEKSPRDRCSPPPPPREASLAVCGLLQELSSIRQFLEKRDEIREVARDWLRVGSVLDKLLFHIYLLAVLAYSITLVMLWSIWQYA
It counts as functional.

The target in assay [10] is Melanocortin receptor 3 (Homo sapiens, UniProt P41968).
Melanocortin receptor 3, sequence (P41968 whole entry): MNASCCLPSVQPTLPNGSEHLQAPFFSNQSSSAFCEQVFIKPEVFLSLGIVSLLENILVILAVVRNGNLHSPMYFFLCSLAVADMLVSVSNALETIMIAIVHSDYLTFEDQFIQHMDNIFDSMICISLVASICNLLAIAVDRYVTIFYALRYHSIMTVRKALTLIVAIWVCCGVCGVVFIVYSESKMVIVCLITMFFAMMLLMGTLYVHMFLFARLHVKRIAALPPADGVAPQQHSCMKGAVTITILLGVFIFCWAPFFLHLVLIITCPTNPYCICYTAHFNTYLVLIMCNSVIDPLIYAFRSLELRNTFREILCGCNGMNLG
Assay [11] deals with Delta-type opioid receptor (Homo sapiens, UniProt P41143).
Delta-type opioid receptor, sequence (P41143 whole entry): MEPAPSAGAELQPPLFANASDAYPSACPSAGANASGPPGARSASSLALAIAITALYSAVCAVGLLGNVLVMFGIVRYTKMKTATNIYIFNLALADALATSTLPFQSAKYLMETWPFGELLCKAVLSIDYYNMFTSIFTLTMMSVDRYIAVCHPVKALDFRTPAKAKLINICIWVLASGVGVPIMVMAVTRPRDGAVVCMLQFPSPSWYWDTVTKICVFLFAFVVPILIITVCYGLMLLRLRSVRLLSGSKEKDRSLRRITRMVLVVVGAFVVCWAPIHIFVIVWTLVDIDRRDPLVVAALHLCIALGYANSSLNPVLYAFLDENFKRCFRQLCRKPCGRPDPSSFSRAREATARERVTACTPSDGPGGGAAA
For assay [12], the target named is 3',5'-cyclic-AMP phosphodiesterase 4D (Homo sapiens, UniProt Q08499). Format: functional.
3',5'-cyclic-AMP phosphodiesterase 4D, sequence (Q08499 whole entry): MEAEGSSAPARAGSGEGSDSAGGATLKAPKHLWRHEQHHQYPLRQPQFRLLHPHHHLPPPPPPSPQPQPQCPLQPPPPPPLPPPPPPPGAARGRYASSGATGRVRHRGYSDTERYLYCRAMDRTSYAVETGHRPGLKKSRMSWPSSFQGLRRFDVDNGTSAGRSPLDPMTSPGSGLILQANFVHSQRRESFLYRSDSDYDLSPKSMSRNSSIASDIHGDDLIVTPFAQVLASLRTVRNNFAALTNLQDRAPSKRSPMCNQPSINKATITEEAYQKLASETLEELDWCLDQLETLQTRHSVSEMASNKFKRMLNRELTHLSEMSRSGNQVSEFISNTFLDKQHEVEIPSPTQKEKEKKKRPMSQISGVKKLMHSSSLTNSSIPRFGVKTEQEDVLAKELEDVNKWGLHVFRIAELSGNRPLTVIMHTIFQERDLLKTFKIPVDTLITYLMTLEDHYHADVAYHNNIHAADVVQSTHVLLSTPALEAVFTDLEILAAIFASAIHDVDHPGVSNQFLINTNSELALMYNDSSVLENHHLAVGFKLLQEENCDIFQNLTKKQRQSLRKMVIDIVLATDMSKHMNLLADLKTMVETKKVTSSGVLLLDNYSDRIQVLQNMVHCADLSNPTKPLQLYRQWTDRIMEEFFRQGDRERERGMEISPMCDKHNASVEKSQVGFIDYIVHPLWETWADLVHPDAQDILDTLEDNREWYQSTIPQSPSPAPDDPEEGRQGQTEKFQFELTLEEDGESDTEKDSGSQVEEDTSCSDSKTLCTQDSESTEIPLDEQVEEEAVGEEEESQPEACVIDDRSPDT
Assay [13] has as its target Sodium-dependent noradrenaline transporter (Homo sapiens, UniProt P23975).
Note: assay procedure not described here.

5-hydroxytryptamine receptor 2B, sequence (P41595 whole entry): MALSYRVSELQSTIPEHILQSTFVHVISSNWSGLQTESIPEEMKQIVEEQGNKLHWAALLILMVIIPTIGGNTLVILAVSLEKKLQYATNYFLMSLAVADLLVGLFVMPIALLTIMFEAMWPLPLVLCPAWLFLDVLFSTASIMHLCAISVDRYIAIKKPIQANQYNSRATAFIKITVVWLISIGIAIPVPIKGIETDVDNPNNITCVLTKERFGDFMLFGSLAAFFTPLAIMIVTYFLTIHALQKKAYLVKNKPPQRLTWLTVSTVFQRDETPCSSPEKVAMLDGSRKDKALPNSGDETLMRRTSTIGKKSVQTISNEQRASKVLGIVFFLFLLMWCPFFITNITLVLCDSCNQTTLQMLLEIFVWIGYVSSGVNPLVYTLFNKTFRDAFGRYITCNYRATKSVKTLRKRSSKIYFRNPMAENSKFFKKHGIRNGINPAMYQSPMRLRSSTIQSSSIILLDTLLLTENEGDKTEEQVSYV
Sodium-dependent noradrenaline transporter, sequence (P23975 whole entry): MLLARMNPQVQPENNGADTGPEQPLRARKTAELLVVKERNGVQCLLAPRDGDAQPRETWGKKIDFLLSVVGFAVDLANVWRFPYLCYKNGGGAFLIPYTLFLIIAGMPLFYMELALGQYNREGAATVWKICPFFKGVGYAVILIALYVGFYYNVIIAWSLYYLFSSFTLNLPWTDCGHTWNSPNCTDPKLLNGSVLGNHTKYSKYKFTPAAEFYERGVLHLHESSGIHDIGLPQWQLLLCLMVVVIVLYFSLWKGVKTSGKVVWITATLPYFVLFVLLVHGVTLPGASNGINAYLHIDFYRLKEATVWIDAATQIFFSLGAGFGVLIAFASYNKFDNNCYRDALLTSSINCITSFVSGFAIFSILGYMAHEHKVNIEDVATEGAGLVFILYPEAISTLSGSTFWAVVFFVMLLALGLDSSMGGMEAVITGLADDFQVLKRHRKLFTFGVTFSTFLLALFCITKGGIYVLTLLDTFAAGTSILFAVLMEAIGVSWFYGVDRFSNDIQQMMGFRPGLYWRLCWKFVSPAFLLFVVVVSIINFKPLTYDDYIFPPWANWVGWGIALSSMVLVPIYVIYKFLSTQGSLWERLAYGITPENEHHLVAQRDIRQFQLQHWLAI
Bile salt export pump, sequence (O95342 whole entry): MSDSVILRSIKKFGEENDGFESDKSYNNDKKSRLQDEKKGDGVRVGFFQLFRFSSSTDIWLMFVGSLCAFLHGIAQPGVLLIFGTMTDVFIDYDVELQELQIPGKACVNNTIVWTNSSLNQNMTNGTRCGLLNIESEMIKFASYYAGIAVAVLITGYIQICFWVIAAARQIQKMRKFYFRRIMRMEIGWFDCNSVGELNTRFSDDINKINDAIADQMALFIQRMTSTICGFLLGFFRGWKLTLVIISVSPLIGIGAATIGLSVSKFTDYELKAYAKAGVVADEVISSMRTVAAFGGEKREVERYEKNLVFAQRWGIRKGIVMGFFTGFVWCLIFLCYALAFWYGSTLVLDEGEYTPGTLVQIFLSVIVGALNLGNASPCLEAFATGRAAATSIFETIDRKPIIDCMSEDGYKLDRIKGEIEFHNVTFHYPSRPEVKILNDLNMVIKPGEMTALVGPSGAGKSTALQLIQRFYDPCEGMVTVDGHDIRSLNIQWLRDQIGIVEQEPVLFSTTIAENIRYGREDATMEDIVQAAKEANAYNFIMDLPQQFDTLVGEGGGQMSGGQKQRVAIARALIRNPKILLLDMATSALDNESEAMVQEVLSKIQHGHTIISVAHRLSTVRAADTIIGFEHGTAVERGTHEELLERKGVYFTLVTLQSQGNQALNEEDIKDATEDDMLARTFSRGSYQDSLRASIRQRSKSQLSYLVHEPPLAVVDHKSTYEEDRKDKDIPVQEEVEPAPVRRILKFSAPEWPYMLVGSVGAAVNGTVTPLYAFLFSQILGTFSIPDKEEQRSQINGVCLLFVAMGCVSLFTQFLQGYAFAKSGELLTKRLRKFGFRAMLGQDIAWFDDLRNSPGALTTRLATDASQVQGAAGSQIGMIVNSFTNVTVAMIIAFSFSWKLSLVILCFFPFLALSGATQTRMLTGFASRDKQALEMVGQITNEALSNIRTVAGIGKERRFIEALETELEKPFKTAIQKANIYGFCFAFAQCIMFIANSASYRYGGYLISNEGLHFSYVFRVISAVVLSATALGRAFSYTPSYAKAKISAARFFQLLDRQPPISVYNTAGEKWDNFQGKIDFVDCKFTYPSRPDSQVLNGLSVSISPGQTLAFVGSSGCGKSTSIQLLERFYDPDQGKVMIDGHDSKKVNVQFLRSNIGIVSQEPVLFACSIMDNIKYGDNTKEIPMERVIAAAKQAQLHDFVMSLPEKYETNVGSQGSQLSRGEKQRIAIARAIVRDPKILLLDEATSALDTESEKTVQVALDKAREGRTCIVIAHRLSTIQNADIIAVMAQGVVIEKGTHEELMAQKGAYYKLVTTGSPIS

Broadly, the AC50 is the midpoint of the concentration-response curve, whichever way the signal moves. Turning to `C[C@H](Nc1ncnc2[nH]cnc12)c1cc2cccc(Cl)c2c(=O)n1-c1ccccc1` [DUVELISIB], the AC50 was 45 µM in assay [1]; > 30 µM in [2]; > 30 µM in [3]; > 30 µM in assay [4]; > 30 µM in assay [5]; > 30 µM in [6]. Besides, the AC50 in [7], in assay [8], in assay [9], in assay [10], in [11] and in [12] was > 30 µM each time. Further, in [13], the AC50 was > 30 µM.
For `COC(=O)CCc1ccc(OCC(O)CNC(C)C)cc1` (stereo not given) [ESMOLOL], the AC50 in [1] was > 300 µM; in assay [2], > 30 µM; in assay [3], > 30 µM; in assay [4], > 30 µM; in [5], > 30 µM; in assay [6], > 30 µM. For the same compound, the AC50 in [7], in [8], in [9], in assay [10], in assay [11] and in assay [12] was > 30 µM in each case. Also, in assay [13], the AC50 was > 30 µM.
Take `C[C@]12CCC(=O)C=C1CC[C@H]1[C@@H]3CC[C@](O)(C(=O)CO)[C@@]3(C)C[C@H](O)[C@@]12F` [FLUDROCORTISONE]: the AC50 is > 300 µM in [1]; > 30 µM in assay [2]; > 30 µM in assay [3]; > 10 µM in [4]; > 10 µM in [5]; > 10 µM in assay [6]. For the same compound, the AC50 is > 10 µM in [7]; > 10 µM in assay [8]; > 30 µM in assay [9]; > 30 µM in [10]; > 30 µM in [11]; > 30 µM in assay [12]. Moreover, the AC50 in assay [13] is > 30 µM.
Regarding `CCOC(=O)Nc1ccc(NCc2ccc(F)cc2)nc1N` [FLUPIRTINE], the AC50 in [1] was 85 µM; in [2], > 30 µM; in [3], > 30 µM; in assay [4], > 30 µM; in assay [5], > 30 µM; in assay [6], > 30 µM. Also, the AC50 in assay [7], in assay [8], in assay [9], in assay [10], in [11] and in assay [12] was > 30 µM each time. The AC50 in [13] was > 30 µM.
As to `NCC1(CC(=O)O)CCCCC1` [GABAPENTIN], the AC50 in [1] was > 300 µM; in assay [2], > 30 µM; in assay [3] it was > 30 µM; in assay [4], > 30 µM; in assay [5] it was > 30 µM; in assay [6], > 30 µM. Besides, the AC50 in assay [7], in assay [8], in [9], in [10], in assay [11] and in assay [12] was > 30 µM throughout. Moreover, in [13], the AC50 was > 30 µM.
In the case of `OCCOCCN1CCN(C(c2ccccc2)c2ccc(Cl)cc2)CC1` (stereo not given) [HYDROXYZINE], the AC50 in assay [1] was 270 µM; in assay [2] it was > 30 µM; in assay [3], > 30 µM; in assay [4] it was > 10 µM; in [5], 2.3 µM; in [6], > 10 µM. The AC50 is > 10 µM in [7]; 2.2 µM in assay [8]; > 30 µM in assay [9]; > 30 µM in assay [10]; > 30 µM in assay [11]; > 30 µM in assay [12]. For the same compound, the AC50 in assay [13] is > 10 µM.
On to `C[C@@H](O)[C@H]1C(=O)N2C(C(=O)O)=C(SCCN=CN)C[C@H]12` [IMIPENEM ANHYDROUS], for which the AC50 in [1], in [2], in assay [3], in [4], in [5] and in assay [6] was > 300 µM throughout. In addition, the AC50 in [7], in assay [8], in assay [9], in assay [10], in assay [11] and in assay [12] was > 300 µM throughout. The AC50 in assay [13] is > 300 µM.
For the compound `O=C(c1ccccc1)c1ccc2n1CCC2C(=O)O` (stereo not given) [KETOROLAC], the AC50 in [1] was > 300 µM; in assay [2] it was > 10 µM; in assay [3], > 10 µM; in assay [4], > 30 µM; in assay [5] it was > 30 µM; in assay [6], > 30 µM. In addition, the AC50 is > 30 µM in assay [7]; > 30 µM in [8]; > 30 µM in assay [9]; > 10 µM in assay [10]; > 30 µM in assay [11]; > 30 µM in assay [12]. Also, the AC50 in assay [13] is > 10 µM.
As for `Nc1nnc(-c2cccc(Cl)c2Cl)c(N)n1` [LAMOTRIGINE], the AC50 is > 300 µM in [1]; > 30 µM in assay [2]; > 30 µM in [3]; > 10 µM in assay [4]; > 10 µM in assay [5]; > 30 µM in assay [6]. Further, the AC50 was > 10 µM in assay [7]; > 10 µM in [8]; > 30 µM in assay [9]; > 30 µM in assay [10]; > 30 µM in assay [11]; > 30 µM in assay [12]. Besides, the AC50 in [13] was > 10 µM.
For `N[C@@H](Cc1cc(I)c(Oc2cc(I)c(O)c(I)c2)c(I)c1)C(=O)O` [LEVOTHYROXINE], the AC50 in assay [1] was > 300 µM; in assay [2], > 30 µM; in assay [3] it was > 30 µM; in [4], > 30 µM; in [5], > 30 µM; in [6], > 30 µM. For the same compound, the AC50 in assay [7] was > 30 µM; in [8], > 30 µM; in [9], > 30 µM; in assay [10], > 30 µM; in assay [11] it was > 30 µM; in [12], 1.8 µM. In assay [13], the AC50 is > 30 µM.
